As usually defined, the melting point is the temperature, or range, at which the solid turns liquid.

SMILES strings stand for the structures.

Consider `N#CN=C(Cc1ccccc1F)N[C@@H]1CCc2ccccc21` [Example 50, N′-cyano-N-[(1R)-2,3-dihydro-1H-inden-1-yl]-2-(2-fluorophenyl)ethanimidamide], for which the melting point was 141 to 142 °C. To `Cc1ccccc1CC(=NC#N)NC(NC(=O)CF)C(C)(C)C` (stereo not drawn) belongs 151 to 152 °C.

Turning to `Cc1ccccc1CC(=NC#N)NC(NC(=O)Cc1cccc2ccccc12)C(C)(C)C` (stereo not drawn) [Example 9, N-(1-{[N-cyano-2-(2-methylphenyl)ethanimidoyl]amino}-2,2-dimethylpropyl)-2-(1-naphthyl)acetamide], the melting point lay within 97 to 100 °C. `COc1ccc(CC(=O)NC(NC(Cc2ccccc2C)=NC#N)C(C)(C)C)cc1OC` (stereo not drawn) [Example 3, N-(1-{[N-cyano-2-(2-methylphenyl)ethanimidoyl]amino}-2,2-dimethylpropyl)-2-(3,4-dimethoxyphenyl)acetamide] registered a melting point of 153 to 155 °C.

On to `Cc1ccccc1CC(=NC#N)NC(NC(=O)Cc1ccc2c(c1)OCCO2)C(C)(C)C` (stereo not drawn) [Example 7, N-(1-{[N-cyano-2-(2-methylphenyl)ethanimidoyl]amino}-2,2-dimethylpropyl)-2-(2,3-dihydro-1,4-benzodioxin-6-yl)acetamide], for which the melting point fell in the range of 180 to 181 °C. In the case of `COc1ccc(CC(=O)NC(NC(=NC#N)c2cccc3ncccc23)C(C)(C)C)cc1OC` (stereo not drawn) [Example 24, N-(1-{[(cyanoimino)(quinolin-5-yl)methyl]amino}-2,2-dimethylpropyl)-2-(3,4-dimethoxyphenyl)acetamide] it was 203 to 205 °C. In the case of `COc1ccc(CCCC(=O)NC(NC(Cc2ccccc2C)=NC#N)C(C)(C)C)cc1` (stereo not drawn) [Example 16, N-(1-{[N-cyano-2-(2-methylphenyl)ethanimidoyl]amino}-2,2-dimethylpropyl)-4-(4-methoxyphenyl)butanamide] it was 171 to 172 °C; in that of `CC(C)(C)C(NC(=O)Cc1ccc(Cl)cc1)NC(Cc1cccc2ncccc12)=NC#N` (stereo not drawn) [Example 23, 2-(4-chlorophenyl)-N-(1-{[N-cyano-2-quinolin-5-ylethanimidoyl]amino}-2,2-dimethylpropyl)acetamide], 186 to 188 °C. To `CCSc1ccc(CC(=O)NC(NC(Cc2ccccc2C)=NC#N)C(C)(C)C)cc1` (stereo not drawn) [Example 14, N-(1-{[N-cyano-2-(2-methylphenyl)ethanimidoyl]amino}-2,2-dimethylpropyl)-2-[4-(ethylthio)phenyl]acetamide] belongs 196 to 198 °C. As for `Cc1ccccc1CC(=NC#N)NC(NC(=O)Cc1ccc(F)c(F)c1)C(C)(C)C` (stereo not drawn) [Example 13, N-(1-{[N-cyano-2-(2-methylphenyl)ethanimidoyl]amino}-2,2-dimethylpropyl)-2-(3,4-difluorophenyl)acetamide], the melting point fell in the range of 178 to 179 °C. To `COc1ccc(CC(=O)NC(NC(Cc2cccnc2C)=NC#N)C(C)(C)C)cc1OC` (stereo not drawn) [Example 21, N-(1-{[N-cyano-2-(2-methylpyridin-3-yl)ethanimidoyl]amino}-2,2-dimethylpropyl)-2-(3,4-dimethoxyphenyl)acetamide] belongs 164 to 165 °C; to `Cc1ccccc1CC(=NC#N)NC(NC(=O)Cc1ccc2c(c1)OCO2)C(C)(C)C` (stereo not drawn) [Example 5, 2-(1,3-benzodioxol-5-yl)-N-(1-{[N-cyano-2-(2-methylphenyl)ethanimidoyl]amino}-2,2-dimethylpropyl)acetamide], 167 to 169 °C; to `Cc1ccccc1CC(=NC#N)NC(NC(=O)Cc1cccnc1)C(C)(C)C` (stereo not drawn) [Example 18, N-(1-{[N-cyano-2-(2-methylphenyl)ethanimidoyl]amino}-2,2-dimethylpropyl)-2-pyridin-3-ylacetamide], 84 to 86 °C.

In turn, `Cc1ccccc1CC(=NC#N)NC(NC(=O)Cc1ccc2ncccc2c1)C(C)(C)C` (stereo not drawn) [Example 10, N-(1-{[N-cyano-2-(2-methylphenyl)ethanimidoyl]amino}-2,2-dimethylpropyl)-2-quinolin-6-ylacetamide] registered a melting point of 172 to 173 °C. To `Cc1ccccc1CC(=NC#N)NC(NC(=O)CCCCc1ccccc1)C(C)(C)C` (stereo not drawn) [Example 17, N-(1-{[N-cyano-2-(2-methylphenyl)ethanimidoyl]amino}-2,2-dimethylpropyl)-5-phenylpentanamide] belongs 151 to 152 °C; to `CC[C@@H](NC(Cc1cccnc1C)=NC#N)c1ccccc1` [Example 57, N′-cyano-2-(2-methylpyridin-3-yl)-N-[(1R)-1-phenylpropyl]ethanimidamide], 52 to 54 °C; to `Cc1ncccc1CC(=NC#N)NC(NC(=O)Cc1ccc(Cl)cc1)C(C)(C)C` (stereo not drawn) [Example 20, 2-(4-chlorophenyl)-N-(1-{[N-cyano-2-(2-methylpyridin-3-yl)ethanimidoyl]amino}-2,2-dimethylpropyl)acetamide], 118 to 119 °C. In the case of `Cc1ccccc1CC(=NC#N)NC(NC(=O)CCCc1cccs1)C(C)(C)C` (stereo not drawn) [Example 12, N-(1-{[N-cyano-2-(2-methylphenyl)ethanimidoyl]amino}-2,2-dimethylpropyl)-4-thien-2-ylbutanamide] it was 154 to 155 °C; in that of `Cc1ccccc1CC(=NC#N)NC(NC(=O)Cc1ccc(C#N)cc1)C(C)(C)C` (stereo not drawn) [Example 6, N-(1-{[N-cyano-2-(2-methylphenyl)ethanimidoyl]amino}-2,2-dimethylpropyl)-2-(4-cyanophenyl)acetamide], 199 to 201 °C; in that of `Cc1ccccc1C(=NC#N)NC(NC(=O)Cc1ccc(Cl)cc1)C(C)(C)C` (stereo not drawn) [Example 19, 2-(4-chlorophenyl)-N-(1-{[(cyanoimino)(2-methylphenyl)methyl]amino}-2,2-dimethylpropyl)acetamide], 109 to 110 °C. Take `CSc1ccc(CC(=O)NC(NC(Cc2ccccc2C)=NC#N)C(C)(C)C)cc1` (stereo not drawn) [Example 15, N-(1-{[N-cyano-2-(2-methylphenyl)ethanimidoyl]amino}-2,2-dimethylpropyl)-2-[4-(methylthio)phenyl]acetamide]: the melting point lay in the range of 201 to 202 °C. In the case of `COc1ccc(CCC(C)NC(Cc2ccccc2C)=NC#N)cc1` (stereo not drawn) [Example 35, N′-cyano-N-[3-(4-methoxyphenyl)-1-methylpropyl]-2-(2-methylphenyl)ethanimidamide] it was 103 to 104 °C; in that of `Cc1ccccc1CC(=NC#N)NC(NC(=O)Cc1ccc(Cl)cc1)C(C)(C)C` (stereo not drawn) [Example 2, 2-(4-chlorophenyl)-N-(1-{[N-cyano-2-(2-methylphenyl)ethanimidoyl]amino}-2,2-dimethylpropyl)acetamide], 183 to 185 °C. To `Cc1ncccc1CC(=NC#N)N[C@@H]1CCCc2ccccc21` [Example 58, N′-cyano-2-(2-methylpyridin-3-yl)-N-[(1R)-1,2,3,4-tetrahydronaphthalen-1-yl]ethanimidamide] belongs 193 to 194 °C; to `Cc1ccccc1CC(=NC#N)NC(NC(=O)Cc1ccc2cccnc2c1)C(C)(C)C` (stereo not drawn) [Example 11, N-(1-{[N-cyano-2-(2-methylphenyl)ethanimidoyl]amino}-2,2-dimethylpropyl)-2-quinolin-7-ylacetamide], 165 to 166 °C; to `COc1ccc(CC(=O)NC(NC(Cc2ccccc2C)=NC#N)C(C)(C)C)cc1` (stereo not drawn) [Example 4, N-(1-{[N-cyano-2-(2-methylphenyl)ethanimidoyl]amino}-2,2-dimethylpropyl)-2-(4-methoxyphenyl)acetamide], 199 to 201 °C. As to `Cc1ccccc1CC(=NC#N)NC(NC(=O)Cc1ccccc1)C(C)(C)C` (stereo not drawn) [Example 1, N-(1-{[N-cyano-2-(2-methylphenyl)ethanimidoyl]amino}-2,2-dimethylpropyl)-2-phenylacetamide], the melting point fell in the range of 182 to 183 °C.

The values above are taken from patent publication US7241776B2, “Cyanoamidine P2X7 antagonists for the treatment of pain” (Abbott Laboratories, priority 2004, dated 2007).
